According to patent publication US9004162B2, “Methods of stimulating acetoclastic methanogenesis in subterranean deposits of carbonaceous material” (Transworld Technologies Inc., priority 2012, dated 2015):

System: microorganism consortium in the subterranean formation
Method: Field tests were conducted on a mature coal-bed methane natural gas well in the Powder River Basin region in Wyoming. […] Total injection volume was 975,450 gallons of formation water, as well as 575.7 lbs. of sodium acetate trihydrate and 2404.7 lbs. of anhydrous sodium acetate. The effective average concentration of acetate in the injection water was 4.06 mM. In the pretreatment period, well 23M-2283 was used to access a microorganism consortium in the subterranean formation and obtain samples for microorganism population analysis.

CC(=O)[O-].[Na+] [acetate amendment, sodium acetate]
total microbial population density (after acetate amendment introduced in situ (effective average 4.06 mM acetate in injection water), pretreatment 4.2×10^4 cells/ml): 1.5×10^6 cells/ml
acetoclastic methanogens as share of total archaea population (at some points during natural gas recovery operations following the two-week period): ~100%
acetoclastic methanogens as share of total archaea (two weeks after introduction of the amendment, pretreatment ~20%): greater than 90%
hydrogenotrophic methanogens as share of total archaea (two weeks after introduction of the amendment, pretreatment ~80%): less than 10%
